Measurements taken from ChEMBL document CHEMBL1201862, “PubChem BioAssay data set” (2004).
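Five concentrations, 48 hours, 96-well plates. GI50 = concentration required for 50% inhibition of growth.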 Active and inactive are the calls of the source. Cut-off read from the data, not from the text of the source: active = GI50 up to about 1.1 µM and inactive = higher.

Assays:
Assay in all cases: NCI-60 cell line screen, 48 h
T47D = system: T47D
UACC-62 = system: UACC-62
NCI-H23 = system: NCI-H23
Malme-3M = system: Malme-3M
ACHN = system: ACHN
NCI-H460 = system: NCI-H460
SNB-19 = system: SNB-19
IGROV-1 = system: IGROV-1
MDA-MB-435 = system: MDA-MB-435
Hs-578T = system: Hs-578T
A498 = system: A498
OVCAR-8 = system: OVCAR-8
MDA-MB-231 = system: MDA-MB-231
KM12 = system: KM12
SW-620 = system: SW-620
K562 = system: K562
HCC 2998 = system: HCC 2998
LOX IMVI = system: LOX IMVI
SK-MEL-28 = system: SK-MEL-28
HL-60 = system: HL-60

Measured: GI50

Oc1ccnc(SCc2ccc(Cl)cc2)n1
inactive: T47D > 100 µM | UACC-62 > 100 µM | NCI-H23 > 100 µM | Malme-3M > 100 µM | ACHN > 100 µM | NCI-H460 > 100 µM | SNB-19 > 100 µM | IGROV-1 > 100 µM | MDA-MB-435 > 100 µM | Hs-578T > 100 µM | A498 > 100 µM | OVCAR-8 > 100 µM | MDA-MB-231 > 100 µM | KM12 > 100 µM | SW-620 > 100 µM | K562 > 100 µM | HCC 2998 13.4 µM | LOX IMVI > 100 µM | SK-MEL-28 > 100 µM

Cc1c(CN2CCOCC2)c(CN2CCOCC2)c(C)n1-c1ccc(Cl)cn1
inactive: T47D > 100 µM | UACC-62 > 100 µM | NCI-H23 > 100 µM | Malme-3M > 100 µM | ACHN > 100 µM | NCI-H460 > 100 µM | SNB-19 > 100 µM | IGROV-1 > 100 µM | MDA-MB-435 > 100 µM | Hs-578T > 100 µM | A498 > 100 µM | OVCAR-8 > 100 µM | MDA-MB-231 > 100 µM | KM12 > 100 µM | SW-620 > 100 µM | K562 > 100 µM | HCC 2998 > 100 µM | SK-MEL-28 > 100 µM

Cc1ccc(-c2[nH]c(=O)n(C3OC(CO)C(O)C(O)C3O)c(=O)c2C#N)cc1 (stereo not drawn)
inactive: T47D > 100 µM | UACC-62 > 100 µM | NCI-H23 > 100 µM | ACHN > 100 µM | NCI-H460 > 100 µM | SNB-19 > 100 µM | IGROV-1 > 100 µM | MDA-MB-435 > 100 µM | Hs-578T > 100 µM | A498 > 100 µM | OVCAR-8 > 100 µM | MDA-MB-231 > 100 µM | KM12 > 100 µM | SW-620 > 100 µM | K562 > 100 µM | HCC 2998 > 100 µM | HL-60 > 100 µM | SK-MEL-28 > 100 µM

CC[C@H]1OC([C@H](O)C/C=C\C#C[Si](C)(C)C)C/C=C\C[C@H]1O[Si](C)(C)C(C)(C)C (stereo partly drawn)
inactive: T47D > 100 µM | UACC-62 > 100 µM | NCI-H23 > 100 µM | Malme-3M > 100 µM | ACHN > 100 µM | NCI-H460 > 100 µM | SNB-19 > 100 µM | IGROV-1 > 100 µM | MDA-MB-435 > 100 µM | Hs-578T > 100 µM | A498 > 100 µM | OVCAR-8 > 100 µM | MDA-MB-231 > 100 µM | KM12 > 100 µM | SW-620 > 100 µM | K562 > 100 µM | HCC 2998 > 100 µM | LOX IMVI 19.4 µM | SK-MEL-28 > 100 µM

O=C1/C(=C/c2ccccc2[N+](=O)[O-])N=C(c2ccccc2)N1C1Nc2cc3c(cc2S1)NC(N1C(=O)/C(=C/c2ccccc2[N+](=O)[O-])N=C1c1ccccc1)S3 (stereo not drawn)
inactive: T47D 25.1 µM | NCI-H23 29 µM | ACHN 28.4 µM | NCI-H460 5.45 µM | IGROV-1 55.2 µM | MDA-MB-435 51.6 µM | Hs-578T 50 µM | A498 27.5 µM | OVCAR-8 39.5 µM | MDA-MB-231 61.5 µM | KM12 52.4 µM | SW-620 50.4 µM | K562 37.1 µM | HCC 2998 16.7 µM | HL-60 24 µM | LOX IMVI 35 µM | SK-MEL-28 > 100 µM

N#C[C@@H](c1ccccn1)c1ncccc1[N+](=O)[O-]
inactive: T47D > 100 µM | UACC-62 > 100 µM | NCI-H23 > 100 µM | Malme-3M > 100 µM | ACHN > 100 µM | NCI-H460 > 100 µM | SNB-19 > 100 µM | IGROV-1 > 100 µM | MDA-MB-435 > 100 µM | Hs-578T > 100 µM | A498 > 100 µM | OVCAR-8 > 100 µM | MDA-MB-231 > 100 µM | SW-620 > 100 µM | K562 > 100 µM | HCC 2998 > 100 µM | LOX IMVI > 100 µM | SK-MEL-28 > 100 µM

FC(F)(Sc1nc2ccccc2[nH]1)c1nc2ccccc2o1
inactive: T47D > 100 µM | UACC-62 > 100 µM | NCI-H23 > 100 µM | Malme-3M 24.4 µM | ACHN > 100 µM | NCI-H460 > 100 µM | IGROV-1 > 100 µM | MDA-MB-435 > 100 µM | Hs-578T > 100 µM | A498 > 100 µM | OVCAR-8 43.1 µM | MDA-MB-231 > 100 µM | KM12 > 100 µM | SW-620 > 100 µM | K562 > 100 µM | HCC 2998 > 100 µM | SK-MEL-28 > 100 µM

CSc1cc(Cl)c(C)cc1S(=O)(=O)NC(=O)NNc1ccccn1
inactive: T47D > 100 µM | Malme-3M > 100 µM | ACHN > 100 µM | NCI-H460 > 100 µM | SNB-19 > 100 µM | IGROV-1 > 100 µM | MDA-MB-435 > 100 µM | Hs-578T > 100 µM | A498 > 100 µM | OVCAR-8 > 100 µM | MDA-MB-231 > 100 µM | KM12 > 100 µM | SW-620 > 100 µM | K562 > 100 µM | HCC 2998 > 100 µM | LOX IMVI > 100 µM | SK-MEL-28 > 100 µM

CC1(/C=C/CCSc2ccccc2)CC(=O)C2CC1C2(C)C (stereo not drawn)
inactive: T47D 11.2 µM | UACC-62 8.04 µM | NCI-H23 12.1 µM | Malme-3M 21.3 µM | ACHN 19 µM | NCI-H460 17.3 µM | SNB-19 35.8 µM | IGROV-1 17.8 µM | MDA-MB-435 19.3 µM | Hs-578T 22.9 µM | A498 44.7 µM | OVCAR-8 22.3 µM | MDA-MB-231 37.4 µM | KM12 13.2 µM | SW-620 32.5 µM | K562 5.79 µM | HCC 2998 12.5 µM | LOX IMVI 14.8 µM | SK-MEL-28 25.1 µM

Cn1c2ccccc2c(=O)c2c(O)cc3c(c21)C=CC1(CCCCC1)O3
inactive: T47D > 10 µM | UACC-62 > 10 µM | NCI-H23 > 10 µM | Malme-3M > 10 µM | ACHN > 10 µM | NCI-H460 > 10 µM | SNB-19 > 10 µM | IGROV-1 > 10 µM | MDA-MB-435 > 10 µM | Hs-578T 9.06 µM | A498 > 10 µM | OVCAR-8 > 10 µM | MDA-MB-231 > 10 µM | KM12 1.62 µM | SW-620 > 10 µM | K562 4.5 µM | HCC 2998 > 10 µM | LOX IMVI > 10 µM | SK-MEL-28 > 10 µM

Oc1ccc(-c2nc3cc(C(F)(F)F)ccc3n2CC2CCCN3CCCCC23)cc1 (stereo not drawn)
inactive: T47D 18.2 µM | NCI-H23 16.5 µM | ACHN 15 µM | NCI-H460 15.1 µM | IGROV-1 12.7 µM | MDA-MB-435 13.5 µM | Hs-578T 15.8 µM | A498 14.9 µM | OVCAR-8 16 µM | MDA-MB-231 14.5 µM | KM12 15.3 µM | SW-620 15.1 µM | K562 15.5 µM | HCC 2998 9.75 µM | HL-60 3.01 µM | LOX IMVI 15.4 µM | SK-MEL-28 16.1 µM
